Measured values reported in patent US20180000085A1, “USE OF PICOLINAMIDE COMPOUNDS WITH FUNGICIDAL ACTIVITY” (DOW AGROSCIENCES LLC, priority 2014, published 2018).

What was measured:
Zymoseptoria tritici = test: Leaf blotch of wheat (SEPTTR) disease control on wheat seedlings; format: in vivo; parameters: key to SEPTTR 1DP, HV activity at 100 ppm (% control rating) / SEPTTR 3DC, HV activity at 100 ppm (% control rating) / SEPTTR disease control, 1DP / SEPTTR disease control, 3DC / SEPTTR 1DP disease control rating, HV activity / SEPTTR 3DC disease control rating, HV activity / SEPTTR 3DC, LV activity at 125.1 g/H (% Control rating) / SEPTTR 1DP, LV activity at 125.1 g/H (% Control rating) / SEPTTR 1DP disease control rating, LV activity at 125.1 g/H / SEPTTR 3DC disease control rating, LV activity at 125.1 g/H / SEPTTR 3DC disease control rating, HV activity at 100 ppm / SEPTTR 1DP disease control rating, HV activity at 100 ppm / HV activity at 100 ppm SEPTTR 3DC (disease control rating) / HV activity at 100 ppm SEPTTR 1DP (disease control rating) / LV activity at 125.1 g/H SEPTTR 1DP (disease control rating) / LV activity at 125.1 g/H SEPTTR 3DC (disease control rating): A: > 80; B: ≤ 80; C: Not Tested; D: No Activity Observed in the Reported Assay; conditions: for SEPTTR 1DP disease control rating, LV activity at 125.1 g/H / SEPTTR 3DC disease control rating, LV activity at 125.1 g/H / SEPTTR 1DP, LV activity at 125.1 g/H (% Control rating) / SEPTTR 3DC, LV activity at 125.1 g/H (% Control rating): low volume application; for SEPTTR 1DP disease control rating, LV activity at 125.1 g/H / SEPTTR 1DP disease control rating, HV activity at 100 ppm: 1 day protectant; for SEPTTR 3DC disease control rating, LV activity at 125.1 g/H / SEPTTR 3DC disease control rating, HV activity at 100 ppm: 3 day curative; for SEPTTR 1DP disease control rating, HV activity / SEPTTR 3DC disease control rating, HV activity: HV application at 100 ppm; for SEPTTR 1DP disease control rating, HV activity at 100 ppm / SEPTTR 3DC disease control rating, HV activity at 100 ppm: high volume application
Puccinia triticina = test: Wheat brown rust (PUCCRT) disease control on wheat seedlings; format: in vivo; parameters: key to PUCCRT 3DC, HV activity at 100 ppm (% control rating) / PUCCRT disease control, 3DC / PUCCRT 1DP disease control rating, HV activity / PUCCRT 3DC disease control rating, HV activity / PUCCRT 3DC, LV activity at 125.1 g/H (% Control rating) / PUCCRT 1DP, LV activity at 125.1 g/H (% Control rating) / PUCCRT 3DC disease control rating, LV activity at 125.1 g/H / PUCCRT 1DP disease control rating, LV activity at 125.1 g/H / PUCCRT 3DC disease control rating, HV activity at 100 ppm / PUCCRT 1DP disease control rating, HV activity at 100 ppm / HV activity at 100 ppm PUCCRT 3DC (disease control rating) / LV activity at 125.1 g/H PUCCRT 1DP (disease control rating) / LV activity at 125.1 g/H PUCCRT 3DC (disease control rating): A: > 80; B: ≤ 80; C: Not Tested; D: No Activity Observed in the Reported Assay; conditions: for PUCCRT 1DP disease control rating, LV activity at 125.1 g/H / PUCCRT 3DC disease control rating, LV activity at 125.1 g/H / PUCCRT 1DP, LV activity at 125.1 g/H (% Control rating) / PUCCRT 3DC, LV activity at 125.1 g/H (% Control rating): low volume application; for PUCCRT 1DP disease control rating, LV activity at 125.1 g/H / PUCCRT 1DP disease control rating, HV activity at 100 ppm: 1 day protectant; for PUCCRT 3DC disease control rating, LV activity at 125.1 g/H / PUCCRT 3DC disease control rating, HV activity at 100 ppm: 3 day curative; for PUCCRT 1DP disease control rating, HV activity / PUCCRT 3DC disease control rating, HV activity: HV application at 100 ppm; for PUCCRT 1DP disease control rating, HV activity at 100 ppm / PUCCRT 3DC disease control rating, HV activity at 100 ppm: high volume application
[1] = 1 Day Protectant, wheat leaf blotch
[2] = 3 Day Curative, wheat leaf blotch
[3] = 1 Day Protectant, wheat brown rust
[4] = 3 Day Curative, wheat brown rust

Q: For CCC(CC)[C@@H](Oc1ccccc1Cl)[C@H](C)OC(=O)[C@@H](NC(=O)c1nccc(OC)c1OC(C)=O)C(C)C [Cmpd 662], which “SEPTTR 1DP disease control rating, LV activity at 125.1 g/H” value (Zymoseptoria tritici) is on record?
A: D

Q: And the “SEPTTR 3DC disease control rating, LV activity at 125.1 g/H” value (Zymoseptoria tritici)?
A: B (≤ 80)

Q: And the “PUCCRT 1DP disease control rating, LV activity at 125.1 g/H” value (Puccinia triticina)?
A: A (> 80)

Q: What about the “PUCCRT 3DC disease control rating, LV activity at 125.1 g/H” value (Puccinia triticina) of the same compound?
A: B (≤ 80)

Q: Which “SEPTTR 1DP disease control rating, HV activity” value (Zymoseptoria tritici; [1]) does the source give for CCC(CC)[C@H](Oc1cccc(F)c1)[C@H](C)OC(=O)[C@H](C)NC(=O)c1nccc(OC)c1O [Cmpd 419] here?
A: B (≤ 80)

Q: And the “SEPTTR 3DC disease control rating, HV activity” value (Zymoseptoria tritici; [2])?
A: B (≤ 80)

Q: What about the “PUCCRT 1DP disease control rating, HV activity” value (Puccinia triticina; [3]) of the same compound?
A: A (> 80)

Q: What about the “PUCCRT 3DC disease control rating, HV activity” value (Puccinia triticina; [4]) of the same compound?
A: D

Q: With CC(C)C[C@@H](Oc1cc(F)ccc1F)[C@H](C)OC(=O)[C@H](C)NC(=O)c1ncccc1O [Cmpd 1036] as the compound, how does the “HV activity at 100 ppm SEPTTR 1DP (disease control rating)” value (Zymoseptoria tritici; HV application, 100 ppm, 1 Day Protectant, wheat leaf blotch) read?
A: B (≤ 80)

Q: What about the “HV activity at 100 ppm SEPTTR 3DC (disease control rating)” value (Zymoseptoria tritici; HV application, 100 ppm, 3 Day Curative, wheat leaf blotch) of the same compound?
A: D

Q: And the “HV activity at 100 ppm PUCCRT 1DP (disease control rating)” value (Puccinia triticina; HV application, 100 ppm, 1 Day Protectant, wheat brown rust)?
A: A (> 80)

Q: What about the “HV activity at 100 ppm PUCCRT 3DC (disease control rating)” value (Puccinia triticina; HV application, 100 ppm, 3 Day Curative, wheat brown rust) of the same compound?
A: B (≤ 80)

Q: For COc1ccnc(C(=O)N[C@@H](C)C(=O)O[C@@H](C)[C@H](Oc2ccc(Cl)cc2Cl)c2ccccc2)c1OCOC(C)=O [Cmpd 634], which “SEPTTR 1DP, LV activity at 125.1 g/H (% Control rating)” value (shortened to “SEPTTR 1DP … (% Control rating)”) (Zymoseptoria tritici; 1 Day Protectant) is on record?
A: A (> 80)

Q: And the “SEPTTR 3DC, LV activity at 125.1 g/H (% Control rating)” value (“SEPTTR 3DC … (% Control rating)” for short) (Zymoseptoria tritici; 3 Day Curative)?
A: A (> 80)

Q: And the “PUCCRT 1DP, LV activity at 125.1 g/H (% Control rating)” value (“PUCCRT 1DP … (% Control rating)” below) (Puccinia triticina; 1 Day Protectant)?
A: A (> 80)

Q: What about the “PUCCRT 3DC, LV activity at 125.1 g/H (% Control rating)” value (shortened to “PUCCRT 3DC … (% Control rating)”) (Puccinia triticina; 3 Day Curative) of the same compound?
A: B (≤ 80)

Q: What does the source list for COc1ccnc(C(=O)N[C@@H](C)C(=O)O[C@@H](C)[C@@H](Cc2ccccc2)OCC2CC2)c1O [Cmpd 344]?
A: SEPTTR 1DP disease control rating, HV activity (Zymoseptoria tritici; [1]): D; SEPTTR 3DC disease control rating, HV activity (Zymoseptoria tritici; [2]): B (≤ 80); PUCCRT 1DP disease control rating, HV activity (Puccinia triticina; [3]): B (≤ 80); PUCCRT 3DC disease control rating, HV activity (Puccinia triticina; [4]): A (> 80)

Q: How did the “SEPTTR 1DP disease control rating, HV activity at 100 ppm” value (Zymoseptoria tritici; 100 ppm) turn out when COc1ccnc(C(=O)NC(C(=O)OC(C)C(Oc2ccccc2)C(C)C)C(F)(F)F)c1O (mixture of isomers) [Cmpd 1018] was run?
A: A (> 80)

Q: And the “SEPTTR 3DC disease control rating, HV activity at 100 ppm” value (Zymoseptoria tritici; 100 ppm)?
A: D

Q: What about the “PUCCRT 1DP disease control rating, HV activity at 100 ppm” value (Puccinia triticina; 100 ppm) of the same compound?
A: A (> 80)

Q: And the “PUCCRT 3DC disease control rating, HV activity at 100 ppm” value (Puccinia triticina; 100 ppm)?
A: A (> 80)

Q: C=CC[C@@H](Oc1ccccc1)[C@H](C)OC(=O)[C@H](C)NC(=O)c1nccc(OC)c1OC(C)=O [Cmpd 695] was tested. Which “SEPTTR 1DP disease control rating, LV activity at 125.1 g/H” value (Zymoseptoria tritici) did it give?
A: B (≤ 80)

Q: What about the “SEPTTR 3DC disease control rating, LV activity at 125.1 g/H” value (Zymoseptoria tritici) of the same compound?
A: B (≤ 80)

Q: And the “PUCCRT 1DP disease control rating, LV activity at 125.1 g/H” value (Puccinia triticina)?
A: A (> 80)

Q: What about the “PUCCRT 3DC disease control rating, LV activity at 125.1 g/H” value (Puccinia triticina) of the same compound?
A: A (> 80)

Q: For C=CC[C@@H](Oc1ccc(F)cc1F)[C@H](C)OC(=O)[C@H](C)NC(=O)c1nccc(OC)c1O [Cmpd 1023], which “SEPTTR 1DP disease control rating, HV activity at 100 ppm” value (Zymoseptoria tritici; 100 ppm) is on record?
A: D

Q: And the “SEPTTR 3DC disease control rating, HV activity at 100 ppm” value (Zymoseptoria tritici; 100 ppm)?
A: B (≤ 80)

Q: What about the “PUCCRT 1DP disease control rating, HV activity at 100 ppm” value (Puccinia triticina; 100 ppm) of the same compound?
A: A (> 80)

Q: What about the “PUCCRT 3DC disease control rating, HV activity at 100 ppm” value (Puccinia triticina; 100 ppm) of the same compound?
A: A (> 80)

Q: With CCC(CC)[C@@H](Oc1cc(F)ccc1F)[C@H](C)OC(=O)[C@@H](NC(=O)c1nccc(OC)c1OCOC(C)=O)C(C)C [Cmpd 650] as the compound, how does the “SEPTTR 1DP … (% Control rating)” value (Zymoseptoria tritici; 1 Day Protectant) read?
A: D

Q: What about the “SEPTTR 3DC … (% Control rating)” value (Zymoseptoria tritici; 3 Day Curative) of the same compound?
A: B (≤ 80)

Q: What about the “PUCCRT 1DP … (% Control rating)” value (Puccinia triticina; 1 Day Protectant) of the same compound?
A: A (> 80)

Q: What about the “PUCCRT 3DC … (% Control rating)” value (Puccinia triticina; 3 Day Curative) of the same compound?
A: B (≤ 80)

Q: For CCCO[C@@H]([C@H](C)OC(=O)[C@H](C)NC(=O)c1nccc(OC)c1OCOC(C)=O)[C@H](CC)Oc1ccccc1 [Cmpd 510], which “SEPTTR 1DP … (% Control rating)” value (Zymoseptoria tritici; 1 Day Protectant) is on record?
A: A (> 80)

Q: What about the “SEPTTR 3DC … (% Control rating)” value (Zymoseptoria tritici; 3 Day Curative) of the same compound?
A: B (≤ 80)

Q: And the “PUCCRT 1DP … (% Control rating)” value (Puccinia triticina; 1 Day Protectant)?
A: A (> 80)

Q: What about the “PUCCRT 3DC … (% Control rating)” value (Puccinia triticina; 3 Day Curative) of the same compound?
A: A (> 80)

Q: For CCCOC(c1ccccc1)C(C)OC(=O)C(C)NC(=O)c1nccc(OC)c1O (centres unmarked) [Cmpd 821], which “SEPTTR 1DP disease control rating, HV activity at 100 ppm” value (Zymoseptoria tritici; 100 ppm) is on record?
A: B (≤ 80)

Q: And the “SEPTTR 3DC disease control rating, HV activity at 100 ppm” value (Zymoseptoria tritici; 100 ppm)?
A: B (≤ 80)

Q: And the “PUCCRT 1DP disease control rating, HV activity at 100 ppm” value (Puccinia triticina; 100 ppm)?
A: A (> 80)

Q: And the “PUCCRT 3DC disease control rating, HV activity at 100 ppm” value (Puccinia triticina; 100 ppm)?
A: A (> 80)
